pEC50: −log10 of the molar value.

In general, pEC50 refers to the negative decadic logarithm of the EC50, by convention in mol/L.

The first assay concerns HCV 1b-377-neo replicon cells. As to the kind of experiment: HCV replicon assay, HCV 1b-377-neo replicon cells (1b FRET). Format: cell-based, Hepatitis C virus genotype 1b. Conditions: HCV 1b-377-neo replicon cells; HCV 1b genotype; read-out: EC50 range against HCV 1b (Table 2, Range). The essentials:
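FRET-based replicon assay in HCV 1b-377-neo cells, including a comparison line carrying the NS5A Y2065H mutation that confers resistance to a reference compound.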
(A replicon is a self-replicating genome or part of one, used to study replication in cells.)
For `CN(C)CC(=O)N[C@@H](C(=O)N1CCC[C@H]1c1ncc(-c2ccc(-c3ccc(-c4c[nH]c([C@@H]5CCCN5C(=O)[C@H]5CCCO5)n4)cc3)cc2)[nH]1)c1ccccc1` [Example 120-8, N^2,N^2-dimethyl-N-((1R)-2-oxo-1-phenyl-2-((2S)-2-(5-(4′-(2-((2S)-1-((2R)-tetrahydro-2-furanylcarbonyl)-2-pyrrolidinyl)-1H-imidazol-4-yl)-4-biphenylyl)-1H-imidazol-2-yl)-1-pyrrolidinyl)ethyl) glycinamide], the pEC50 is 7.00 to 9.00.

Staying with this assay, now noted: Hepatitis C virus, HCV 1b-377-neo replicon cells; HCV 1b genotype; read-out: EC50 range against HCV 1b (Table 2, Range).
Take `COC(=O)N[C@H](CCc1ccccc1)CC(=O)N1CCC[C@H]1c1ncc(-c2ccc(-c3ccc(-c4cnc([C@@H]5CCCN5C(=O)C[C@@H](CCc5ccccc5)NC(=O)OC)[nH]4)cc3)cc2)[nH]1` [cj-135, dimethyl (4,4′-biphenyldiylbis(1H-imidazole-5,2-diyl(2S)-2,1-pyrrolidinediyl((3R)-1-oxo-5-phenyl-1,3-pentanediyl)))biscarbamate]: the pEC50 is 7.00 to 9.00. The same measure, in the same setting: with `CN(C)[C@@H](C(=O)N1CCC[C@H]1c1ncc(-c2ccc(-c3ccc(-c4cnc([C@@H]5CCCN5C(=O)[C@@](C)(O)c5ccccc5F)[nH]4)cc3)cc2)[nH]1)c1ccccc1` [Example 94-1, (2S)-1-((2S)-2-(5-(4′-(2-((2S)-1-((2R)-2-(dimethylamino)-2-phenylacetyl)-2-pyrrolidinyl)-1H-imidazol-5-yl)-4-biphenylyl)-1H-imidazol-2-yl)-1-pyrrolidinyl)-2-(2-fluorophenyl)-1-oxo-2-propanol] the figure was 9.00 to 12.00; with `CCN(CC)[C@H](C)C(=O)N1CCC[C@H]1c1ncc(-c2ccc(-c3ccc(-c4cnc([C@@H]5CCCN5C(=O)[C@@H](NC(=O)OC)C(C)C)[nH]4)c(F)c3)cc2F)[nH]1` [Example D59, methyl ((1S)-1-(((2S)-2-(5-(4′-(2-((2S)-1-(N,N-diethyl-D-alanyl)-2-pyrrolidinyl)-1H-imidazol-5-yl)-3,3′-difluoro-4-biphenylyl)-1H-imidazol-2-yl)-1-pyrrolidinyl)carbonyl)-2-methylpropyl) carbamate], 9.00 to 12.00. As for `CC(=O)N1CCC[C@H]1c1ncc(-c2ccc(-c3ccc(-c4cnc([C@@H]5CCCN5C(=O)[C@@H](c5ccccc5)N5CCCCC5)[nH]4)cc3)cc2)[nH]1` [Example 107-29, 1-1((1R)-2-((2S)-2-(5-(4′-(2-((2S)-1-acetyl-2-pyrrolidinyl)-1H-imidazol-5-yl)-4-biphenylyl)-1H-imidazol-2-yl)-1-pyrrolidinyl)-2-oxo-1-phenylethyl) piperidine], the pEC50 is 9.00 to 12.00. Consider `CC[C@@H](O)C(=O)N1CCC[C@H]1c1ncc(-c2ccc(-c3ccc(-c4cnc([C@@H]5CCCN5C(=O)[C@H](NC(=O)OC)c5ccccc5)[nH]4)cc3)cc2)[nH]1` [Example 56, methyl ((1R)-2-((2S)-2-(5-(4′-(2-((2S)-1-((2R)-2-hydroxybutanoyl)-2-pyrrolidinyl)-1H-imidazol-5-yl)-4-biphenylyl)-1H-imidazol-2-yl)-1-pyrrolidinyl)-2-oxo-1-phenylethyl)carbamate], for which the pEC50 was 9.00 to 12.00. As to `COC(=O)N[C@@H](C(=O)N1CCC[C@H]1c1ncc(-c2ccc(-c3ccc(-c4[nH]c([C@@H]5CCCN5C(=O)[C@H](NC(=O)OC)c5ccccc5)nc4C(N)=O)cc3)cc2)[nH]1)c1ccccc1` [Example J29, methyl ((1R)-2-((2S)-2-(4-carbamoyl-5-(4′-(2-((2S)-1-((2R)-2-((methoxycarbonyl)amino)-2-phenylacetyl)-2-pyrrolidinyl)-1H-imidazol-5-yl)-4-biphenylyl)-1H-imidazol-2-yl)-1-pyrrolidinyl)-2-oxo-1-phenylethyl)carbamate], the pEC50 is 9.00 to 12.00. For `COC(=O)N[C@@H](C(=O)N1CCC[C@H]1c1ncc(-c2ccc(-c3ccc(-c4cnc([C@@H]5CCCN5C(=O)[C@H](c5ccccc5)N(C)C)[nH]4)cc3)cc2)[nH]1)c1ccccc1` [Example 38, methyl ((1R)-2-((2S)-2-(5-(4′-(2-((2S)-1-((2S)-2-(dimethylamino)-2-phenylacetyl)-2-pyrrolidinyl)-1H-imidazol-5-yl)-4-biphenylyl)-1H-imidazol-2-yl)-1-pyrrolidinyl)-2-oxo-1-phenylethyl)carbamate], the pEC50 was 9.00 to 12.00. For `O=C(OCc1ccccc1)N1CCC[C@H]1c1ncc(-c2ccc(-c3ccc(-c4cnc([C@@H]5CCCN5C(=O)OCc5ccccc5)[nH]4)cc3)cc2)[nH]1` [Example 109, dibenzyl (2S,2′S)-2,2′-(4,4′-biphenyldiylbis(1H-imidazole-5,2-diyl))di(1-pyrrolidinecarboxylate)], the pEC50 is 7.00 to 9.00. As to `COC(=O)N[C@@H](C(=O)N1C[C@@H](O)C[C@H]1c1ncc(-c2ccc(-c3ccc(-c4cnc([C@@H]5C[C@H](O)CN5C(=O)[C@H](NC(=O)OC)c5ccccc5)[nH]4)cc3)cc2)[nH]1)c1ccccc1` [Example 24-17, dimethyl (4,4′-biphenyldiylbis(1H-imidazole-5,2-diyl((2S,4S)-4-hydroxy-2,1-pyrrolidinediyl)((1R)-2-oxo-1-phenyl-2,1-ethanediyl)))biscarbamate], the pEC50 was 9.00 to 12.00.

Regarding `Cn1cncc1C(=O)N[C@@H](C(=O)N1CCC[C@H]1c1ncc(-c2ccc(-c3ccc(-c4cnc([C@@H]5CCCN5C(=O)[C@H](NC(=O)c5cncn5C)c5ccccc5)[nH]4)cc3)cc2)[nH]1)c1ccccc1` [Example 25-2, N,N′-(4,4′-biphenyldiylbis(1H-imidazole-5,2-diyl(2S)-2,1-pyrrolidinediyl((1R)-2-oxo-1-phenyl-2,1-ethanediyl)))bis(1-methyl-1H-imidazole-5-carboxamide)], the pEC50 is 9.00 to 12.00. In the case of `CCNC(=O)N1CCC[C@H]1c1ncc(-c2ccc(-c3ccc(-c4cnc([C@@H]5CCCN5C(=O)[C@H](NC(=O)OC)c5ccccc5)[nH]4)cc3)cc2)[nH]1` [Example 108, methyl ((1R)-2-((2S)-2-(5-(4′-(2-((2S)-1-(ethylcarbamoyl)-2-pyrrolidinyl)-1H-imidazol-5-yl)-4-biphenylyl)-1H-imidazol-2-yl)-1-pyrrolidinyl)-2-oxo-1-phenylethyl)carbamate], the pEC50 was 9.00 to 12.00. As for `O=C(Cc1cccs1)N1CCC[C@H]1c1ncc(-c2ccc(-c3ccc(-c4cnc([C@@H]5CCCN5C(=O)[C@@H](c5ccccc5)N5CCCCC5)[nH]4)cc3)cc2)[nH]1` [Example 107-30, 1-((1R)-2-oxo-1-phenyl-2-((2S)-2-(5-(4′-(2-((2S)-1-(2-thienylacetyl)-2-pyrrolidinyl)-1H-imidazol-5-yl)-4-biphenylyl)-1H-imidazol-2-yl)-1-pyrrolidinyl)ethyl)piperidine], the pEC50 was 9.00 to 12.00.

Consider `COC(=O)N[C@H](C(=O)N1CCC[C@H]1c1ncc(-c2ccc(-c3ccc(-c4[nH]c([C@@H]5CCCN5C(=O)[C@@H](NC(=O)OC)C(C)C)nc4CC4OCCCO4)cc3)cc2)[nH]1)C(C)C` [Example J14, methyl ((1S)-1-(((2S)-2-(4-(1,3-dioxan-2-ylmethyl)-5-(4′-(2-((2S)-1-((2S)-2-((methoxycarbonyl)amino)-3-methylbutanoyl)-2-pyrrolidinyl)-1H-imidazol-4-yl)-4-biphenylyl)-1H-imidazol-2-yl)-1-pyrrolidinyl)carbonyl)-2-methylpropyl)carbamate], for which the pEC50 is 9.00 to 12.00.
